Converted amounts (≈) assume the structure as drawn. Like-named read-outs stand apart in the source and are kept apart here.
Assays:
Helicobacter pylori [1] = assay: Viability of H. pylori after 1 hour with FFA or MG in Brucella broth (plate count, Example 1, Table 1); assay type: cell-based; conditions: for Effect on test strains of H. pylori: up to 5 mM, three strains; for Reduction in number of viable H. pylori cells (CFU/mL): 1 hour, 37° C.; for Reductions in cell numbers: test strains HP-2, HP-4, HP-5, 1 hour incubation
Helicobacter pylori [2] = assay: Viability of H. pylori after 1 hour in prototype nutritional compositions containing FFA or MG (Example 3, Table 6); assay type: cell-based, Helicobacter pylori (ATCC 43629); conditions: for Change in viable cell number: 1 hour; for Inhibition in nutritional compositions: levels as high as 20 mM; for Reductions in viability of H. pylori: 10 mM for 1 hour
Helicobacter felis = assay: H. felis infected mouse model (urease activity and histology of gastric tissue); assay type: in vivo, Helicobacter felis in adult mice
Description: The restricted host range of Helicobacter pylori has hampered the development of a widely accepted animal model of H. pylori infection. […] Other animal models of Helicobacter infection have been described based on bacteria similar to H. pylori that have been found in the gastric mucosa of various animals such as the ferret, cat, and monkey. One such model involves the inoculation of adult mice with Heicobacter felis (Fox, J. G., J. C. Murphy, N. S. Taylor, A. Lee, Z. Kabob, and L. Pappo., Local and systemic immune responses in murine Helicobacter felis active chronic gastritis., Infect. Immun. 1993; 61:2309-2315; Dick-Hegedus, E., and A. Lee. Use of a mouse model to examine anti-Helicobacter pylori agents., Scand. J. Gastroenterol. 1991;26:909-915). Preliminary studies were conducted to evaluate the anti-infective activity of MG and FFA against Helicobacter infection in vivo using the H. felis infected mouse model. […] Two weeks later mice were randomized into treatment groups and maintained on liquid diet alone or the same diet supplemented with C10:0 MG or C12:0 MG at a level of 1,5, or 10 mM. Gastric colonization with H. felis in mice was determined 1 and 3 weeks later by evaluation of urease activity ([…]. Barody, A. Gal, and A. Lee., Campylobacter pyloridis gastritis I: Detection of urease as a marker of bacterial colonization and gastritis. Am. J. Gastroenterol. 1987; 82: 292-296) and histopathological assessment of bacterial infection in gastric tissues.

Helicobacter pylori [3] = assay: Minimal inhibitory concentration (MIC) for H. pylori (Example 5); assay type: cell-based
Helicobacter pylori [4] = assay type: cell-based, Helicobacter pylori (HP-2, HP-4, HP-5); conditions: for Frequency of resistance / Resistant variants of H. pylori: concentrations as low as two times the MIC; for Frequency of resistant mutants (number of spontaneous mutants): ~1 × 10^8 CFU; for Frequency of innate resistance compared with MG and FFA: H. pylori strains, Table 7
[5] = Nutrament (Formulation II), 20 mM
[6] = Sustacal (Formulation I), 10 mM
[7] = Sustacal (Formulation I), 20 mM
[8] = Ultracal (Formulation III), 5 mM
[9] = Ultracal (Formulation III), 10 mM
[10] = Ultracal (Formulation III), 20 mM
[11] = Nutrament (Formulation II), 5 mM
[12] = Nutrament (Formulation II), 10 mM
[13] = Helicobacter pylori, Table 7, read-out: MIC

| SMILES | Change in viable cell number (Helicobacter pylori [2]; Sustacal (Formulation I), 5 mM) | Change in viable cell number (Helicobacter pylori [2]; [6]) | Change in viable cell number (Helicobacter pylori [2]; [8]) | Change in viable cell number (Helicobacter pylori [2]; [9]) | Change in viable cell number (Helicobacter pylori [2]; [10]) | Reductions in cell numbers (Helicobacter pylori [1]) | Frequency of resistant mutants (number of spontaneous mutants) (Helicobacter pylori [4]; strain 43579, 2 × MIC) | Frequency of resistant mutants (number of spontaneous mutants) (Helicobacter pylori [4]; strain 43579, 5 × MIC) | Frequency of resistant mutants (number of spontaneous mutants) (Helicobacter pylori [4]; strain 43579, 10 × MIC) | Frequency of resistant mutants (number of spontaneous mutants) (Helicobacter pylori [4]; strain 43629, 2 × MIC) | Frequency of resistant mutants (number of spontaneous mutants) (Helicobacter pylori [4]; strain 43629, 5 × MIC) | Frequency of resistant mutants (number of spontaneous mutants) (Helicobacter pylori [4]; strain 43629, 10 × MIC) | Frequency of resistant mutants (number of spontaneous mutants) (Helicobacter pylori [4]; strain 49503, 2 × MIC) | Frequency of resistant mutants (number of spontaneous mutants) (Helicobacter pylori [4]; strain 49503, 5 × MIC) | Frequency of resistant mutants (number of spontaneous mutants) (Helicobacter pylori [4]; strain 49503, 10 × MIC) | Reductions in viability of H. pylori (Helicobacter pylori [2]) | Change in viable cell number (Helicobacter pylori [2]; [11]) | Change in viable cell number (Helicobacter pylori [2]; [12]) | further results |
| --- | --- | --- | --- | --- | --- | --- | --- | --- | --- | --- | --- | --- | --- | --- | --- | --- | --- | --- | --- |
| CCCCCCCCCC(=O)O [Capric Acid, capric acid, reference compound] | 0.00 LOG CFU/mL | 0.00 LOG CFU/mL | 0.03 LOG CFU/mL | -0.03 LOG CFU/mL | -0.33 LOG CFU/mL |  |  |  |  |  |  |  |  |  |  |  |  |  | Effect on test strains of H. pylori (Helicobacter pylori [1]): None of the test strains of H. pylori were affected; Change in viable cell number (Helicobacter pylori [2]; [5]): -0.08 LOG CFU/mL; Change in viable cell number (Helicobacter pylori [2]; [7]): -0.09 LOG CFU/mL; Inhibition in nutritional compositions (Helicobacter pylori [2]): not inhibitory |
| CCCCCCCC(=O)O [Caprylic Acid, caprylic acid, reference compound] | 0.00 LOG CFU/mL | 0.00 LOG CFU/mL | 0.06 LOG CFU/mL | -0.20 LOG CFU/mL | -0.81 LOG CFU/mL |  |  |  |  |  |  |  |  |  |  |  |  |  | Effect on test strains of H. pylori (Helicobacter pylori [1]): None of the test strains of H. pylori were affected; Change in viable cell number (Helicobacter pylori [2]; [5]): -0.21 LOG CFU/mL; Change in viable cell number (Helicobacter pylori [2]; [7]): 0.02 LOG CFU/mL; Inhibition in nutritional compositions (Helicobacter pylori [2]): not inhibitory |
| CCCCCCCCCC(=O)OCC(O)CO (stereo not drawn) [Monocaprin, monocaprin] | -3.78 LOG CFU/mL | -3.91 LOG CFU/mL | -4.40 LOG CFU/mL | -4.40 LOG CFU/mL |  | ≥ 10,000 fold | < 1 | < 1 | < 1 | < 1 | < 1 | < 1 | < 1 | < 1 | < 1 | ≥ 1000 fold | -4.00 LOG CFU/mL | -4.14 LOG CFU/mL | Histology score (Helicobacter felis; 10 mM in diet, three weeks): remained lower; Numbers of urease positive and histology positive mice (Helicobacter felis; diet, three weeks after initiation of treatment): comparable to the number observed in the infected control group (~80-100%); Number of urease and histology positive mice (Helicobacter felis; liquid diet with MG at 1, 5 or 10 mM, 1 week of treatment): dose-related reductions in the number of urease and histology positive mice; Reduction in H. felis infection (Helicobacter felis; second study, daily intragastric gavage 1.4 or 2.8 mg/day, 1 or 3 weeks): no significant reduction in H. felis infection; Level of infection (histology score) (Helicobacter felis; urease positive mice vs control, diet, 1 week): Lower levels of infection; MIC (Helicobacter pylori [3]; Table 7): 60.0 µg/mL (≈ 244 µM); MIC (Helicobacter pylori [3]; preliminary studies): approximately 60 mg/L; Reduction in number of viable H. pylori cells (CFU/mL) (Helicobacter pylori [1]; ATCC #43579, 1 mM): > 100,000 fold; Reduction in number of viable H. pylori cells (CFU/mL) (Helicobacter pylori [1]; ATCC #43629, 1 mM): > 60,000 fold; Reduction in number of viable H. pylori cells (CFU/mL) (Helicobacter pylori [1]; ATCC #49503, 1 mM): > 30,000 fold; Frequency of resistance (Helicobacter pylori [4]): < 1×10^-8; Resistant variants of H. pylori (Helicobacter pylori [4]): no resistant variants of H. pylori were found |
| CCCCCCCC(=O)OCC(O)CO (stereo not drawn) [Monocaprylin, monocaprylin] | 0.37 LOG CFU/mL | -3.44 LOG CFU/mL | 0.00 LOG CFU/mL | -3.64 LOG CFU/mL | -4.46 LOG CFU/mL | ≥ 1000 fold |  |  |  |  |  |  |  |  |  | ≥ 1000 fold | -4.23 LOG CFU/mL | -4.23 LOG CFU/mL | Reduction in number of viable H. pylori cells (CFU/mL) (Helicobacter pylori [1]; ATCC #43579, 5 mM): > 4,000 fold; Reduction in number of viable H. pylori cells (CFU/mL) (Helicobacter pylori [1]; ATCC #43629, 5 mM): > 3,000 fold; Reduction in number of viable H. pylori cells (CFU/mL) (Helicobacter pylori [1]; ATCC #49503, 5 mM): > 40,000 fold |
| CCCCCCCCCCCC(=O)OCC(O)CO (stereo not drawn) [Monolaurin, monolaurin] | -3.41 LOG CFU/mL | -3.77 LOG CFU/mL | -3.04 LOG CFU/mL | -4.40 LOG CFU/mL |  | ≥ 10,000 fold | < 1 | < 1 | < 1 | < 1 | < 1 | < 1 | < 1 | < 1 | < 1 | ≥ 1000 fold | -4.23 LOG CFU/mL | -3.87 LOG CFU/mL | MIC (Helicobacter pylori [3]; Table 7): 15.0 µg/mL (≈ 54.7 µM); MIC (Helicobacter pylori [3]; preliminary studies): ~15 µg/mL (≈ 54.7 µM); Reduction in number of viable H. pylori cells (CFU/mL) (Helicobacter pylori [1]; ATCC #43579, 1 mM): > 100,000 fold; Reduction in number of viable H. pylori cells (CFU/mL) (Helicobacter pylori [1]; ATCC #43629, 1 mM): > 50,000 fold; Reduction in number of viable H. pylori cells (CFU/mL) (Helicobacter pylori [1]; ATCC #49503, 1 mM): > 30,000 fold; Frequency of resistance (Helicobacter pylori [4]): < 1×10^-8; Resistant variants of H. pylori (Helicobacter pylori [4]): no resistant variants of H. pylori were found |
| Cc1ncc([N+](=O)[O-])n1CCO [metronidazole, reference compound] |  |  |  |  |  |  |  |  |  | 791 | < 1 | < 1 | > 1000 | 48 | < 1 |  |  |  | MIC (Helicobacter pylori [3]; [13]): 2 µg/mL (≈ 11.7 µM); Frequency of innate resistance compared with MG and FFA (Helicobacter pylori [4]): consistently higher; Frequency of resistant mutants (number of spontaneous mutants) (Helicobacter pylori [4]; strain 43679 (so in the source), 2 × MIC): > 1000; Frequency of resistant mutants (number of spontaneous mutants) (Helicobacter pylori [4]; strain 43679 (so in the source), 5 × MIC): 862; Frequency of resistant mutants (number of spontaneous mutants) (Helicobacter pylori [4]; strain 43679 (so in the source), 10 × MIC): 518 |
| CN(C)C1C(=O)C(C(N)=O)=C(O)C2(O)C(=O)C3=C(O)c4c(O)cccc4C(C)(O)C3CC12 (stereo not drawn) [tetracycline, reference compound] |  |  |  |  |  |  | TNTC | TNTC | < 1 | > 1000 | 242 | < 1 | 148 | < 1 | < 1 |  |  |  | MIC (Helicobacter pylori [3]; [13]): 0.1 µg/mL (≈ 0.225 µM); Frequency of innate resistance compared with MG and FFA (Helicobacter pylori [4]): consistently higher |

— patent publication US5660842A, “Inhibition of helicobacter” (Bristol-Myers Squibb Company, priority 1995, dated 1997)
